{
  "source": "patent US7528235B2",
  "about": "“Multi-functional antibodies” (The Regents of the Univarsity of California, priority 2003, dated 2009)",
  "test_system": "antibody 2D12.5",
  "test": "competitive immunoassay (ELISA) of metal-DOTA complexes against immobilized Y-DOTA",
  "format": "binding, murine",
  "details": "37° C.; DOTA analog [S]-2-(p-nitrobenzyl)-DOTA",
  "excerpt": "FIG. 13 is graphical display showing the relative binding of metal-DOTA complexes to antibody 2D12.5. A representative set of competitive binding curves obtained from ELISA experiments described in Example 3 below. Error bars (representing the standard error of the mean) are shown, but are generally smaller than the data points.\nElements plotted in the order Sc (open circle), Lu, Yb, Tm, Er, Ho, Y (open diamond), Dy, Tb, Gd, Eu, Sm, Nd, Pr, Ce, La. ΔΔG values relative to Y-DOTA, set at 0. Error bars represent standard error of the mean.\nTo determine the metal selectivity of the antibody 2D12.5, a competitive immunoassays was used to measure the binding constants of multiple metal-DOTA complexes relative to Y^3+-DOTA.\nWe examined the monoclonal antibody 2D12.5, initially developed to bind specifically to Y-DOTA for targeted radiotherapy (see, e.g., Goodwin et al., i Cancer Res. 54: 5937-5946 (1994)), in order to determine the scope of its activity. To assess the metal selectivity of antibody 2D12.5, a competitive immunoassay to measure the binding constants of various metal-DOTA complexes relative to the original Y^3+ complex was developed (FIG. 12). Briefly, 2D12.5 was incubated at 37° C. in the presence of immobilized Y-DOTA and a soluble metal-DOTA competitor. […] Binding was measured by standard methods known to those of skill in the art. […]",
  "data": [
    {"smiles": "O=C([O-])CN1CCN(CC(=O)[O-])CCN(CC(=O)[O-])C(Cc2ccc([N+](=O)[O-])cc2)CN(CC(=O)[O-])CC1.[Tb+3]", "note": "(stereo not shown) [Tb-DOTA]", "values": [
      {"measurement": "binding strength relative to the original Y^3+ complex (in words)", "value": "strongest binders"}
    ]}
  ]
}
